Source: patent US7212853B1 (priority 1996, dated 2007)

Test: Transdermal electrotransport delivery of goserelin at current densities of 50 and 100 μA/cm^2 (Example 3)
Assay type: in vivo, human
Settings: for average transdermal goserelin flux: 8 hours, 12 volunteers
Protocol: This study was undertaken to evaluate the relationship between current density and drug flux in the transdermal electrotransport delivery of goserelin. The study involved the application of electrotransport devices, applying constant current, to 12 normal male volunteers for a duration of 8 hours.
The two electrotransport treatment regimens in this study differed only in applied current density levels. The electrotransport devices delivered goserelin through the skin from polyvinyl alcohol (PVOH)-based donor hydrogels having a skin-contact surface area of 4 cm^2. The gels contained an aqueous goserelin solution. The current density levels used in this study were 50 and 100 μA/cm^2. After an 8 hour treatment period, the electrotransport devices were removed. The skin site was then washed to remove any residual goserelin. All 12 volunteers received each treatment seven days apart.
For each treatment, seven blood samples were taken over a 24 hour period commencing with the application of current from the electrotransport devices. Serum goserelin concentrations from each patient were used to calculate mean drug flux and the mean total amount of drug delivered.

CC(C)C[C@H](NC(=O)[C@@H](COC(C)(C)C)NC(=O)[C@H](Cc1ccc(O)cc1)NC(=O)[C@H](CO)NC(=O)[C@H](Cc1c[nH]c2ccccc12)NC(=O)[C@H](Cc1cnc[nH]1)NC(=O)[C@@H]1CCC(=O)N1)C(=O)N[C@@H](CCCNC(=N)N)C(=O)N1CCC[C@H]1C(=O)NNC(N)=O [goserelin]
average transdermal goserelin flux (50 μA/cm^2, constant current): 5.8 µg/h
average transdermal goserelin flux (100 μA/cm^2, constant current): 21.6 µg/h
increase in drug flux (current density rises from 50 to 100 μA/cm^2): four
